The values below are quoted from earlier work in patent US9169224B2, “Piperazinyl and piperidinyl ureas as modulators of fatty acid amide hydrolase” (Janssen Pharmaceutica NV, priority 2004, dated 2015).

One data set has as its target FAAH (Homo sapiens (Human), UniProt O00519). The conditions noted are these: WO 04/033652; cited from earlier work.
Data set [1] concerns rats. The conditions noted are these: WO 04/033652; cited from earlier work.
The test system of data set [2] is rats. The conditions noted are these: rat, Kathuria 2003; cited from earlier work.
For data set [3], the system named is rats. The conditions noted are these: Kathuria 2003; cited from earlier work.
In the next data set the test system is CREAE mice. The conditions noted are these: Baker 2001; cited from earlier work.

Sequence of FAAH (O00519 whole entry): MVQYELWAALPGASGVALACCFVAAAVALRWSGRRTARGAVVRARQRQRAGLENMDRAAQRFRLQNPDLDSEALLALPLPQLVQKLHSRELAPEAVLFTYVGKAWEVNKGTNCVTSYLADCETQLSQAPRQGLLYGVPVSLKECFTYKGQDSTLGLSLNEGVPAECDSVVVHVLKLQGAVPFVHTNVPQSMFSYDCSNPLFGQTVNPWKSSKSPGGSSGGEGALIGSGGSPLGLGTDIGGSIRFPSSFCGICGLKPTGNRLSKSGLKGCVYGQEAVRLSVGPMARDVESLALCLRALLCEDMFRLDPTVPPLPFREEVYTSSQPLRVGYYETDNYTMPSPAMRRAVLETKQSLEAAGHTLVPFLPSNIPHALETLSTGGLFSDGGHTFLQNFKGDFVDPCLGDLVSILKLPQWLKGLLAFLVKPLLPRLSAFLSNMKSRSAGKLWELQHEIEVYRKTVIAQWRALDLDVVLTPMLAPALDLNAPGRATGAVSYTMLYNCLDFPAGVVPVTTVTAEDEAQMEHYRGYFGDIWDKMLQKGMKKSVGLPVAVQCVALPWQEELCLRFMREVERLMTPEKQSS

Regarding `O=C(CCCCCCc1ccccc1)c1ncc(-c2ccccn2)o1` [OL-135], at FAAH, the “inhibition of FAAH” value is given as “potent inhibitor of FAAH”. Moreover, in the data set on rats [1], the analgesic activity result was “analgesic activity”. As for `NC(=O)c1cccc(-c2cccc(OC(=O)NC3CCCCC3)c2)c1` [URB-597], the analgesic efficacy result with rats [2] is recorded as “analgesic efficacy”. Also, the “efficacy in anxiety model” value with rats [3] is on record as “efficacy”. Take `CCCCCCCCCCCCCCCCS(=O)(=O)F` [AM374]: the spasticity result in the data set on CREAE mice was “significantly reduce spasticity”.
